Results on 20 molecules are retold here after PubChem BioAssay AID330 (DTP/NCI, 2004).

Molecules are shown by their SMILES. Values joined by “and” are separate entries in the source; they are usually repeats but may differ in a detail not shown here. Identical values can stand only once. Inconclusive results and toxic doses are left out.

The test system of the assay is P388 leukemia ip, CD2F1 mice, survival T/C. Description: NCI In Vivo Anticancer Drug Screen. Data for tumor model P388 Leukemia (intraperitoneal) in CD2F1 (CDF1) mice. Conditions: endpoint: median survival time, higher = longer survival. The essentials: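 Mice carrying the transplanted tumor received test compound or vehicle. Survival was recorded in each group, and the value is the treated-group measurement divided by that of the vehicle-treated control group.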

The mark [1] stands for this setting: dose: 100.0 mg/kg/injection, schedule: Q01DX009 (ip), vehicle: saline with Tween-80.
Setting [2] is: dose: 200.0 mg/kg/injection, schedule: Q01DX009 (ip), vehicle: saline with Tween-80.
The mark [3] stands for this setting: dose: 400.0 mg/kg/injection, schedule: Q01DX009 (ip), vehicle: saline with Tween-80.
[4] abbreviates: dose: 60.0 mg/kg/injection, schedule: Q01DX005 (ip), vehicle: saline with Tween-80.
The mark [5] stands for this setting: dose: 120.0 mg/kg/injection, schedule: Q01DX005 (ip), vehicle: saline with Tween-80.
[6] abbreviates: dose: 240.0 mg/kg/injection, schedule: Q01DX005 (ip), vehicle: saline with Tween-80.
[7] abbreviates: dose: 100.0 mg/kg/injection, schedule: Q01DX001 (ip), vehicle: Klucel (hydroxypropylcellulose) (HPC).
The mark [8] stands for this setting: dose: 200.0 mg/kg/injection, schedule: Q01DX001 (ip), vehicle: Klucel (hydroxypropylcellulose) (HPC).
Where [9] appears, read: dose: 50.0 mg/kg/injection, schedule: Q01DX009 (ip), vehicle: saline.
Setting [10] is: dose: 100.0 mg/kg/injection, schedule: Q01DX009 (ip), vehicle: saline.
[11] abbreviates: dose: 200.0 mg/kg/injection, schedule: Q01DX009 (ip), vehicle: saline.
The mark [12] stands for this setting: dose: 50.0 mg/kg/injection, schedule: Q01DX005 (ip), vehicle: Klucel (hydroxypropylcellulose) (HPC).
Where [13] appears, read: dose: 100.0 mg/kg/injection, schedule: Q01DX005 (ip), vehicle: Klucel (hydroxypropylcellulose) (HPC).
[14] abbreviates: dose: 100.0 mg/kg/injection, schedule: Q04DX002 (ip), vehicle: saline with Tween-80.
Setting [15] is: dose: 200.0 mg/kg/injection, schedule: Q04DX002 (ip), vehicle: saline with Tween-80.
The mark [16] stands for this setting: dose: 400.0 mg/kg/injection, schedule: Q04DX002 (ip), vehicle: saline with Tween-80.
Where [17] appears, read: dose: 200.0 mg/kg/injection, schedule: Q01DX005 (ip), vehicle: Klucel (hydroxypropylcellulose) (HPC).

Turning to `c1cc(Nc2ccc(Nc3ccc(CN4CCCCC4)cc3)cc2)ccc1CN1CCCCC1`, the T/C (dose: 12.5 mg/kg/injection, schedule: Q01DX009 (ip), vehicle: saline + Tween-80 + alcohol) was 105 % of control; the T/C (dose: 12.5 mg/kg/injection, schedule: Q01DX009 (ip), vehicle: saline with Tween-80) is 103 % of control; the T/C (dose: 25.0 mg/kg/injection, schedule: Q01DX009 (ip), vehicle: saline + Tween-80 + alcohol) is 111 % of control and 114 % of control; the T/C (dose: 25.0 mg/kg/injection, schedule: Q01DX009 (ip), vehicle: saline with Tween-80) was 107 % of control; the T/C (dose: 50.0 mg/kg/injection, schedule: Q01DX009 (ip), vehicle: saline + Tween-80 + alcohol) was 114 % of control and 115 % of control; the T/C (dose: 50.0 mg/kg/injection, schedule: Q01DX009 (ip), vehicle: saline with Tween-80) is 111 % of control. For the same molecule, the T/C reads like this: (dose: 100.0 mg/kg/injection, schedule: Q01DX009 (ip), vehicle: saline + Tween-80 + alcohol) 117 % of control and 118 % of control; under setting [1], 99 % of control; (dose: 200.0 mg/kg/injection, schedule: Q01DX009 (ip), vehicle: saline + Tween-80 + alcohol) 124 % of control; under setting [2], 106 % of control; under setting [3], 114 % of control.

For `N#C/C(=C\c1ccccc1)C(=O)Nc1ccccc1`, the T/C was 99 % of control (dose: 6.25 mg/kg/injection, schedule: Q01DX009 (ip), vehicle: suspension in saline); 100 % of control (dose: 12.5 mg/kg/injection, schedule: Q01DX009 (ip), vehicle: suspension in saline); 99 % of control (dose: 25.0 mg/kg/injection, schedule: Q01DX009 (ip), vehicle: suspension in saline); 97 % of control (dose: 50.0 mg/kg/injection, schedule: Q01DX009 (ip), vehicle: suspension in saline).

For `O=C1NC(O)(c2ccccc2)c2cnncc21` (stereo not drawn), the T/C was 90 % of control under setting [4], 93 % of control under setting [5] and 93 % of control under setting [6].

Consider `Cc1nnc2cccc(Cl)n12`, for which the T/C is 106 % of control (dose: 50.0 mg/kg/injection, schedule: Q01DX001 (ip), vehicle: Klucel (hydroxypropylcellulose) (HPC)); 106 % of control under setting [7]; 99 % of control under setting [8].

Turning to `Cc1ccc(Nc2ccc3c4c(cc(=O)n3C)-c3ccccc3C(=O)c24)c(S(=O)(=O)O)c1`, the T/C reads like this: under setting [9], 87 % of control; under setting [10], 91 % of control; under setting [11], 99 % of control; (dose: 400.0 mg/kg/injection, schedule: Q01DX009 (ip), vehicle: saline) 95 % of control.

Turning to `COc1cc2c(cc1OC)[N+]([O-])=C(c1ccccc1)C2=O`, the T/C was 94 % of control under setting [12] and 93 % of control under setting [13].

With `CN(/N=C\c1ccccc1)C(=N)N(C)/N=C/c1ccccc1`, the T/C runs as follows: under setting [7], 91 % of control; under setting [8], 96 % of control.

On to `CCOC(=O)C(NC(C)=O)(C(=O)OCC)c1ccc(Cl)cn1`, for which the T/C was 103 % of control (dose: 100.0 mg/kg/injection, schedule: Q04DX003 (ip), vehicle: saline); 100 % of control (dose: 200.0 mg/kg/injection, schedule: Q04DX003 (ip), vehicle: saline); 95 % of control (dose: 400.0 mg/kg/injection, schedule: Q04DX003 (ip), vehicle: saline).

On to `CCP(C)(=O)c1ccccc1` (stereo not drawn), for which the T/C under setting [14] was 96 % of control, the T/C under setting [15] is 97 % of control and the T/C under setting [16] was 100 % of control.

In the case of `N#CCCOCNC(=O)NCOCCC#N`, the T/C by setting is: under setting [4], 96 % of control; under setting [5], 97 % of control; under setting [6], 90 % of control.

As to `O=C1OC(C(O)CO)C(O)C1O` (stereo not drawn), the T/C by setting is: under setting [12], 99 % of control; (dose: 50.0 mg/kg/injection, schedule: Q01DX005 (ip), vehicle: saline) 94 % of control and 109 % of control and 102 % of control; under setting [13], 97 % of control; (dose: 100.0 mg/kg/injection, schedule: Q01DX005 (ip), vehicle: saline) 96 % of control and 105 % of control and 98 % of control; under setting [17], 101 % of control; (dose: 200.0 mg/kg/injection, schedule: Q01DX005 (ip), vehicle: saline) 96 % of control and 105 % of control.

On to `CC(C)S(=O)(=O)n1c(N)nc2ccc(/C(=N/O)c3ccccc3)cc21`, for which the T/C is 100 % of control under setting [12], 101 % of control under setting [13] and 95 % of control under setting [17].

As for `C/C=C/N=NNc1ccccc1`, the T/C is 111 % of control (dose: 100.0 mg/kg/injection, schedule: Q04DX003 (ip), vehicle: saline + Tween-80 + alcohol); 112 % of control (dose: 200.0 mg/kg/injection, schedule: Q04DX003 (ip), vehicle: saline + Tween-80 + alcohol); 106 % of control (dose: 400.0 mg/kg/injection, schedule: Q04DX003 (ip), vehicle: saline + Tween-80 + alcohol).

For the molecule `O=C(O)C(O)(c1ccccc1Cl)c1ccccc1Cl`, the T/C was 105 % of control (dose: 100.0 mg/kg/injection, schedule: Q04DX003 (ip), vehicle: saline with Tween-80); 110 % of control (dose: 200.0 mg/kg/injection, schedule: Q04DX003 (ip), vehicle: saline with Tween-80); 109 % of control (dose: 400.0 mg/kg/injection, schedule: Q04DX003 (ip), vehicle: saline with Tween-80).

As for `COC1C2OC(C)(C)OC2OC1C(C)N(C)O` (stereo not drawn), the T/C under setting [7] was 103 % of control; the T/C (dose: 100.0 mg/kg/injection, schedule: Q01DX001 (ip), vehicle: saline) was 116 % of control; the T/C under setting [8] is 106 % of control; the T/C (dose: 200.0 mg/kg/injection, schedule: Q01DX001 (ip), vehicle: saline) was 104 % of control; the T/C (dose: 400.0 mg/kg/injection, schedule: Q01DX001 (ip), vehicle: Klucel (hydroxypropylcellulose) (HPC)) is 103 % of control; the T/C (dose: 400.0 mg/kg/injection, schedule: Q01DX001 (ip), vehicle: saline) was 99 % of control.

For the molecule `CC1=C(CN(CC(=O)O)CC(=O)O)C(=O)C(C(C)C)=C/C1=C(\c1ccccc1S(=O)(=O)O)c1cc(C(C)C)c(O)c(CN(CC(=O)O)CC(=O)O)c1C`, the T/C by setting is: under setting [9], 108 % of control; under setting [10], 104 % of control; under setting [11], 103 % of control.

`CNC(=O)OCc1c(COC(=O)NC)c(-c2ccc(Cl)cc2)n2c1CCC2`: the T/C runs as follows: (dose: 6.25 mg/kg/injection, schedule: Q01DX009 (ip), vehicle: Klucel (hydroxypropylcellulose) (HPC)) 150 % of control; (dose: 12.5 mg/kg/injection, schedule: Q01DX009 (ip), vehicle: Klucel (hydroxypropylcellulose) (HPC)) 94 % of control; (dose: 25.0 mg/kg/injection, schedule: Q01DX009 (ip), vehicle: Klucel (hydroxypropylcellulose) (HPC)) 88 % of control; (dose: 50.0 mg/kg/injection, schedule: Q01DX009 (ip), vehicle: Klucel (hydroxypropylcellulose) (HPC)) 104 % of control.

On to `NC(=O)C(Cl)(Cl)Cl`, for which the T/C by setting is: under setting [1], 100 % of control; under setting [2], 99 % of control; under setting [3], 99 % of control.

Consider `O=c1cc(CC(O)c2ccccc2)c2ccccc2[nH]1` (stereo not drawn), for which the T/C under setting [14] was 95 % of control, the T/C under setting [15] was 94 % of control and the T/C under setting [16] was 91 % of control.

`Cc1c(CNc2ccc(C(=O)NC(CC(=O)O)CC(=O)O)cc2)ccc2nc(N)nc(N)c12`: the T/C was 229 % of control (dose: 3.13 mg/kg/injection, schedule: Q04DX003 (ip), vehicle: saline); 118 % of control (dose: 12.5 mg/kg/injection, schedule: Q04DX003 (ip), vehicle: saline with Tween-80); 113 % of control (dose: 25.0 mg/kg/injection, schedule: Q04DX003 (ip), vehicle: saline with Tween-80); 90 % of control (dose: 33.0 mg/kg/injection, schedule: Q04DX003 (ip), vehicle: saline sonified); 86 % of control (dose: 50.0 mg/kg/injection, schedule: Q04DX003 (ip), vehicle: saline sonified); 159 % of control (dose: 50.0 mg/kg/injection, schedule: Q04DX003 (ip), vehicle: saline with Tween-80).
